The values below come from US11111259B2, “Acylsulfonamide derivatives for treating senescence-associated diseases and disorders” (Unity Biotechnology, Inc., priority 2015, dated 2021).

One test deals with BCL-xL (Homo sapiens, UniProt Q07817). As to the kind of experiment: BCL-binding assay (AlphaLISA competition, BAD peptide). To be noted: 6xHis BCL-xL with biotinylated BAD peptide, 24 hr incubation. Here is the method: (§1) Compounds were prepared as 400× DMSO stock solutions in a 1:4 dilution series then diluted […] in assay buffer (25 mM HEPES pH 7.5, 100 mM NaCl, 0.1% BSA, 0.005% Tween) immediately before use. Aliquots of 400 nM 6xHis-tagged BCL-xL, BCL-2, and BCL-w were thawed on ice and diluted to 0.4 (BCL-XL) or 0.8 (BCL-W and 2) nM in assay buffer. Aliquots of biotinylated BIM and BAD peptides were diluted in assay buffer to 120 and 60 nM respectively. Ten microliters of biotinylated peptide were added to wells of a 96-well PCR plate, followed by ten microliters of inhibitor, then ten microliters of BCL protein, BCL-XL with BAD and BCL-W/2 with BIM. The plates were sealed and incubated at room temperature. After 24 hr, 0.16 μg Anti-His conjugated AlphaLISA acceptor beads were added in 5 μL assay buffer. After one hour at room temperature, 0.16 μg AlphaScreen streptavidin donor beads were added in 5 μL assay buffer and plates were incubated an additional 30 min in the dark. Two 17 μL aliquots of each reaction were plated in a Perkin Elmer 384-well proxiplate, and plates were scanned for using a Perkin Elmer Enspire plate reader. Kd values were calculated in Prism Graph Pad using a one site competitive binding model and previously determined Kd values for each protein peptide pair. […]
(In Alpha technology, singlet oxygen from a donor bead excites a nearby acceptor bead.)

A further test concerns the target BCL-2 (Homo sapiens, UniProt P10415). As to the kind of experiment: BCL-binding assay (AlphaLISA competition, BIM peptide). To be noted: 6xHis BCL-2 with biotinylated BIM peptide, 24 hr incubation. The method, then: as §1
Another test has as its target T1, BCL-w (Homo sapiens, UniProt Q92843).
T1 sequence (Q92843 1-193): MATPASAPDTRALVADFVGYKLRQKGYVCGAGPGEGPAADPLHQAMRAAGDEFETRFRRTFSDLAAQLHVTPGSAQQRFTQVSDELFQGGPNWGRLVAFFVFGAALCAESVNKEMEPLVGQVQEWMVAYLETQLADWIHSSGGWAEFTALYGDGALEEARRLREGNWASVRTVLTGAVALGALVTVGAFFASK
The description is as above. To be noted: 6xHis BCL-w with biotinylated BIM peptide, 24 hr incubation. The method, then:
as §1

Test [1] relates to IMR-90 SnC (irradiated senescent IMR90 cells). Put plainly: Senolysis assay (CellTiter-Glo viability). Type of test: cell-based, human. To be noted: for EC50: Homo sapiens, IMR-90, light or radiation study, 72 h, X-ray irradiated senescent IMR90 cells, viability three days after compound addition; for SI (ratio of EC50 of non-senescent cells to EC50 of senescent cells): IMR90 non-senescent vs senescent cells. The method, then: IMR90 cells are maintained in DMEM supplemented with 10% FBS. To prepare a senescent population, cells were trypsinized, diluted to 50,000 per mL, and irradiated with 10-15 Gy of X-ray irradiation. Irradiated cells were plated at 5000 cells per well in one third of a 96-well plate and maintained for two weeks prior to the assay. Four days prior to the assay, non-senescent IMR90s were plated at 2500 per well in the second third of the plate. One day prior to the assay, 2500 non-senescent cells were plated in the final third of the plate. Compounds were prepared as a 200×DMSO dilution series then diluted to 1× in media immediately before adding to cells. Three days after compound addition, cell viability was measured using CellTiter-Glo reagent from Promega. Viability was calculated relative to a DMSO control and EC50 values are calculated in Prism GraphPad. […] The selectivity (SI) of the compounds described herein is a ratio of the EC50 of non-senescent cells to the EC50 of senescent cells. The SI of the compounds described herein is 10 or above for “A” selectivity, between 2 and 10 for “B” selectivity or 2 or less for “C” selectivity.
A general note: In ATP-based viability assays light output follows the ATP content of the culture.

BCL-2, sequence (P10415 whole entry, species assumed): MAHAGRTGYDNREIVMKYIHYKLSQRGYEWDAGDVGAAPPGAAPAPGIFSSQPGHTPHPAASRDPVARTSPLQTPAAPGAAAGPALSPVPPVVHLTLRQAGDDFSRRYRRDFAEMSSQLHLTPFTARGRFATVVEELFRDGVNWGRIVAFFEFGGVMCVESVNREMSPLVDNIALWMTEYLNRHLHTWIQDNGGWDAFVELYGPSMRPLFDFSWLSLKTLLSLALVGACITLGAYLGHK
BCL-xL, sequence (Q07817 whole entry, species assumed): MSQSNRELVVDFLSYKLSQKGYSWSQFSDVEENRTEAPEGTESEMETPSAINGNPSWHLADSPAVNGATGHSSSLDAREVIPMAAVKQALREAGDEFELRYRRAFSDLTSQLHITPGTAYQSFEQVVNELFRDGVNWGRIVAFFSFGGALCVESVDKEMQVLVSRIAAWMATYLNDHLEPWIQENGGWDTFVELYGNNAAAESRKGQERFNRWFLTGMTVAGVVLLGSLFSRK

On to `CCOP(=O)(CN1CCN(CC[C@H](CSc2ccccc2)Nc2ccc(S(=O)(=O)NC(=O)c3ccc(N4CCN(CC5=C(c6ccc(Cl)cc6)CCC(C)(C)C5)CC4)cc3)cc2S(=O)(=O)C(F)(F)F)CC1)OCC` [Compound 6], for which the Kd (as a rule, the constant that tells how readily two partners part at equilibrium) on BCL-xL is < 1 nM; on BCL-2, < 1 nM; on BCL-w it was 1 to 10 nM. In addition, the EC50 – broadly, the concentration needed to bring the measured effect to its halfway point – in test [1] is < 1000 nM. Moreover, in test [1], the “SI (ratio of EC50 of non-senescent cells to EC50 of senescent cells)” value is listed as “A (10 or above)”.
Take `CC1(C)CCC(c2ccc(Cl)cc2)=C(CN2CCN(c3ccc(C(=O)NS(=O)(=O)c4ccc(N[C@H](CCN5CCN(CP(=O)(O)O)CC5)CSc5ccccc5)c(S(=O)(=O)C(F)(F)F)c4)cc3)CC2)C1` [Compound 7]: the figures for the Kd on BCL-xL, at BCL-2 and at BCL-w were < 1 nM, < 1 nM and 10 to 50 nM, respectively. In test [1], the EC50 was > 10000 nM. Further, the “SI (ratio of EC50 of non-senescent cells to EC50 of senescent cells)” value in test [1] was “B (between 2 and 10)”.
Take `CCOP(=O)(CCN1CCN(CC[C@H](CSc2ccccc2)Nc2ccc(S(=O)(=O)NC(=O)c3ccc(N4CCN(CC5=C(c6ccc(Cl)cc6)CCC(C)(C)C5)CC4)cc3)cc2S(=O)(=O)C(F)(F)F)CC1)OCC` [Compound 9]: the figures for the Kd on BCL-xL, at BCL-2 and on BCL-w were < 1 nM, < 1 nM and 1 to 10 nM, respectively. The EC50 in test [1] is < 1000 nM. The “SI (ratio of EC50 of non-senescent cells to EC50 of senescent cells)” value in test [1] is “A (10 or above)”.
For `CCOP(=O)(CCN(C)CC[C@H](CSc1ccccc1)Nc1ccc(S(=O)(=O)NC(=O)c2ccc(N3CCN(CC4=C(c5ccc(Cl)cc5)CCC(C)(C)C4)CC3)cc2)cc1S(=O)(=O)C(F)(F)F)OCC` [Compound 10], the Kd on BCL-xL is < 1 nM; at BCL-2, < 1 nM; at BCL-w, 1 to 10 nM. This compound had a 50% effective concentration (EC50) in test [1] of 1000 to 10000 nM. In test [1], the “SI (ratio of EC50 of non-senescent cells to EC50 of senescent cells)” value was “A (10 or above)”.
Turning to `CCOP(=O)(O)CCN(C)CC[C@H](CSc1ccccc1)Nc1ccc(S(=O)(=O)NC(=O)c2ccc(N3CCN(CC4=C(c5ccc(Cl)cc5)CCC(C)(C)C4)CC3)cc2)cc1S(=O)(=O)C(F)(F)F` [Compound 11], the Kd is < 1 nM at BCL-xL, < 1 nM at BCL-2 and 1 to 10 nM at BCL-w. Further, the EC50 in test [1] is > 10000 nM. Besides, the “SI (ratio of EC50 of non-senescent cells to EC50 of senescent cells)” value in test [1] is recorded as “C (2 or less)”.
For the compound `CN(CC[C@H](CSc1ccccc1)Nc1ccc(S(=O)(=O)NC(=O)c2ccc(N3CCN(CC4=C(c5ccc(Cl)cc5)CCC(C)(C)C4)CC3)cc2)cc1S(=O)(=O)C(F)(F)F)CCP(=O)(O)O` [Compound 12], the Kd is < 1 nM at BCL-xL, < 1 nM on BCL-2 and 10 to 50 nM at BCL-w. Moreover, the EC50 in test [1] is > 10000 nM.
`CC1(C)CCC(c2ccc(Cl)cc2)=C(CN2CCN(c3ccc(C(=O)NS(=O)(=O)c4ccc(N[C@H](CCN5CCN(CCP(=O)(O)O)CC5)CSc5ccccc5)c(S(=O)(=O)C(F)(F)F)c4)cc3)CC2)C1` [Compound 13]: the figures for the Kd on BCL-xL, at BCL-2 and on BCL-w were < 1 nM, < 1 nM and 1 to 10 nM, respectively. For the same compound, the concentration for a half-maximal effect (EC50) in test [1] was > 10000 nM.
For the compound `CCOP(=O)(O)CCN1CCN(CC[C@H](CSc2ccccc2)Nc2ccc(S(=O)(=O)NC(=O)c3ccc(N4CCN(CC5=C(c6ccc(Cl)cc6)CCC(C)(C)C5)CC4)cc3)cc2S(=O)(=O)C(F)(F)F)CC1` [Compound 14], the Kd is < 1 nM on BCL-xL, < 1 nM on BCL-2 and 1 to 10 nM on BCL-w. Moreover, the half-maximal effective concentration (EC50) in test [1] was > 10000 nM.
With `CC(C)OP(=O)(CN1CCN(CC[C@H](CSc2ccccc2)Nc2ccc(S(=O)(=O)NC(=O)c3ccc(N4CCN(CC5=C(c6ccc(Cl)cc6)CCC(C)(C)C5)CC4)cc3)cc2S(=O)(=O)C(F)(F)F)CC1)OC(C)C` [Compound 15], the Kd on BCL-xL is < 1 nM; at BCL-2 it was < 1 nM; on BCL-w it was 10 to 50 nM. The EC50 in test [1] fell in the range of 1000 to 10000 nM. Further, the “SI (ratio of EC50 of non-senescent cells to EC50 of senescent cells)” value in test [1] was “B (between 2 and 10)”.
As to `COP(=O)(CN1CCN(CC[C@H](CSc2ccccc2)Nc2ccc(S(=O)(=O)NC(=O)c3ccc(N4CCN(CC5=C(c6ccc(Cl)cc6)CCC(C)(C)C5)CC4)cc3)cc2S(=O)(=O)C(F)(F)F)CC1)OC` [Compound 16], the Kd at BCL-xL is < 1 nM; on BCL-2, < 1 nM; on BCL-w, 1 to 10 nM. The EC50 in test [1] is < 1000 nM. For the same compound, the “SI (ratio of EC50 of non-senescent cells to EC50 of senescent cells)” value in test [1] is recorded as “A (10 or above)”.
In the case of `CCOP(=O)(CCCN1CCN(CC[C@H](CSc2ccccc2)Nc2ccc(S(=O)(=O)NC(=O)c3ccc(N4CCN(CC5=C(c6ccc(Cl)cc6)CCC(C)(C)C5)CC4)cc3)cc2S(=O)(=O)C(F)(F)F)CC1)OCC` [Compound 23], the values for the Kd at BCL-xL, at BCL-2 and at BCL-w were < 1 nM, < 1 nM and 1 to 10 nM, respectively. The EC50 in test [1] is < 1000 nM. Also, the “SI (ratio of EC50 of non-senescent cells to EC50 of senescent cells)” value in test [1] is recorded as “A (10 or above)”.
Regarding `COP(=O)(CCCN1CCN(CC[C@H](CSc2ccccc2)Nc2ccc(S(=O)(=O)NC(=O)c3ccc(N4CCN(CC5=C(c6ccc(Cl)cc6)CCC(C)(C)C5)CC4)cc3)cc2S(=O)(=O)C(F)(F)F)CC1)OC` [Compound 24], the results for the Kd at BCL-xL, on BCL-2 and on BCL-w were < 1 nM, < 1 nM and 1 to 10 nM, respectively. Further, the half-maximal effective concentration (EC50) in test [1] was < 1000 nM. In addition, the “SI (ratio of EC50 of non-senescent cells to EC50 of senescent cells)” value in test [1] is on record as “A (10 or above)”.
Consider `CC1(C)CCC(c2ccc(Cl)cc2)=C(CN2CCN(c3ccc(C(=O)NS(=O)(=O)c4ccc(N[C@H](CCN5CCN(CCCP(=O)(Oc6ccccc6)Oc6ccccc6)CC5)CSc5ccccc5)c(S(=O)(=O)C(F)(F)F)c4)cc3)CC2)C1` [Compound 25], for which the Kd is 1 to 10 nM at BCL-xL, < 1 nM at BCL-2 and > 50 nM at BCL-w. In test [1], the EC50 is > 10000 nM. Moreover, in test [1], the “SI (ratio of EC50 of non-senescent cells to EC50 of senescent cells)” value is on record as “C (2 or less)”.
With `CCOP(=O)(CN1CCN(CC[C@H](CSc2ccccc2)Nc2ccc(S(=O)(=O)NC(=O)c3ccc(N4CCN(CC5=C(c6ccc(Cl)cc6)CCC(C)(C)C5)CC4)cc3)cc2S(=O)(=O)C(F)(F)F)CC1)OC(C)(C)C` (some centres unmarked) [Compound 26], the results for the Kd on BCL-xL, at BCL-2 and at BCL-w were 10 to 50 nM, > 50 nM and > 50 nM, respectively. Besides, the EC50 in test [1] is > 10000 nM.
On to `CC(C)OP(=O)(CCCN1CCN(CC[C@H](CSc2ccccc2)Nc2ccc(S(=O)(=O)NC(=O)c3ccc(N4CCN(CC5=C(c6ccc(Cl)cc6)CCC(C)(C)C5)CC4)cc3)cc2S(=O)(=O)C(F)(F)F)CC1)OC(C)C` [Compound 27], for which the Kd on BCL-xL was < 1 nM; on BCL-2, < 1 nM; on BCL-w, 1 to 10 nM. For the same compound, the 50% effective concentration (EC50) in test [1] was > 10000 nM. Further, in test [1], the “SI (ratio of EC50 of non-senescent cells to EC50 of senescent cells)” value was “C (2 or less)”.
`CCOP(=O)(O)CC1CCN(CC[C@H](CSc2ccccc2)Nc2ccc(S(=O)(=O)NC(=O)c3ccc(N4CCN(CC5=C(c6ccc(Cl)cc6)CCC(C)(C)C5)CC4)cc3)cc2S(=O)(=O)C(F)(F)F)CC1` [Compound 49, Ethylhydrogen((1-((R)-3-((4-(N-(4-(4-((4′-chloro-4,4-dimethyl-3,4,5,6-tetrahydro-[1,1′-biphenyl]-2-yl)methyl)piperazin-1-yl)benzoyl)sulfamoyl)-2-((trifluoromethyl)sulfonyl)phenyl)amino)-4-(phenylthio)butyl)piperidin-4-yl)methyl)phosphonate]: the Kd at BCL-xL is < 1 nM; on BCL-2, < 1 nM; on BCL-w, 1 to 10 nM.
